# Results taken from US8541588B2, “Sulfonamide derivatives” (Pfizer Limited, priority 2009, dated 2013).
# Biological target: T1, Nav1.7 (or SCN9A) channel; HEK cells stably transfected with hSCN9A (Homo sapiens, UniProt Q15858)
# T1 construct: expressed in transfected cells
# Test: Nav1.7 block, PatchXpress 7000 automated whole-cell voltage clamp, estimated IC50 (EIC50)
# Format: cell-based
# Settings: PatchXpress platform; hSCN9A HEK cells held at V1/2 of inactivation; estimated IC50
# T1 sequence (Q15858 whole entry): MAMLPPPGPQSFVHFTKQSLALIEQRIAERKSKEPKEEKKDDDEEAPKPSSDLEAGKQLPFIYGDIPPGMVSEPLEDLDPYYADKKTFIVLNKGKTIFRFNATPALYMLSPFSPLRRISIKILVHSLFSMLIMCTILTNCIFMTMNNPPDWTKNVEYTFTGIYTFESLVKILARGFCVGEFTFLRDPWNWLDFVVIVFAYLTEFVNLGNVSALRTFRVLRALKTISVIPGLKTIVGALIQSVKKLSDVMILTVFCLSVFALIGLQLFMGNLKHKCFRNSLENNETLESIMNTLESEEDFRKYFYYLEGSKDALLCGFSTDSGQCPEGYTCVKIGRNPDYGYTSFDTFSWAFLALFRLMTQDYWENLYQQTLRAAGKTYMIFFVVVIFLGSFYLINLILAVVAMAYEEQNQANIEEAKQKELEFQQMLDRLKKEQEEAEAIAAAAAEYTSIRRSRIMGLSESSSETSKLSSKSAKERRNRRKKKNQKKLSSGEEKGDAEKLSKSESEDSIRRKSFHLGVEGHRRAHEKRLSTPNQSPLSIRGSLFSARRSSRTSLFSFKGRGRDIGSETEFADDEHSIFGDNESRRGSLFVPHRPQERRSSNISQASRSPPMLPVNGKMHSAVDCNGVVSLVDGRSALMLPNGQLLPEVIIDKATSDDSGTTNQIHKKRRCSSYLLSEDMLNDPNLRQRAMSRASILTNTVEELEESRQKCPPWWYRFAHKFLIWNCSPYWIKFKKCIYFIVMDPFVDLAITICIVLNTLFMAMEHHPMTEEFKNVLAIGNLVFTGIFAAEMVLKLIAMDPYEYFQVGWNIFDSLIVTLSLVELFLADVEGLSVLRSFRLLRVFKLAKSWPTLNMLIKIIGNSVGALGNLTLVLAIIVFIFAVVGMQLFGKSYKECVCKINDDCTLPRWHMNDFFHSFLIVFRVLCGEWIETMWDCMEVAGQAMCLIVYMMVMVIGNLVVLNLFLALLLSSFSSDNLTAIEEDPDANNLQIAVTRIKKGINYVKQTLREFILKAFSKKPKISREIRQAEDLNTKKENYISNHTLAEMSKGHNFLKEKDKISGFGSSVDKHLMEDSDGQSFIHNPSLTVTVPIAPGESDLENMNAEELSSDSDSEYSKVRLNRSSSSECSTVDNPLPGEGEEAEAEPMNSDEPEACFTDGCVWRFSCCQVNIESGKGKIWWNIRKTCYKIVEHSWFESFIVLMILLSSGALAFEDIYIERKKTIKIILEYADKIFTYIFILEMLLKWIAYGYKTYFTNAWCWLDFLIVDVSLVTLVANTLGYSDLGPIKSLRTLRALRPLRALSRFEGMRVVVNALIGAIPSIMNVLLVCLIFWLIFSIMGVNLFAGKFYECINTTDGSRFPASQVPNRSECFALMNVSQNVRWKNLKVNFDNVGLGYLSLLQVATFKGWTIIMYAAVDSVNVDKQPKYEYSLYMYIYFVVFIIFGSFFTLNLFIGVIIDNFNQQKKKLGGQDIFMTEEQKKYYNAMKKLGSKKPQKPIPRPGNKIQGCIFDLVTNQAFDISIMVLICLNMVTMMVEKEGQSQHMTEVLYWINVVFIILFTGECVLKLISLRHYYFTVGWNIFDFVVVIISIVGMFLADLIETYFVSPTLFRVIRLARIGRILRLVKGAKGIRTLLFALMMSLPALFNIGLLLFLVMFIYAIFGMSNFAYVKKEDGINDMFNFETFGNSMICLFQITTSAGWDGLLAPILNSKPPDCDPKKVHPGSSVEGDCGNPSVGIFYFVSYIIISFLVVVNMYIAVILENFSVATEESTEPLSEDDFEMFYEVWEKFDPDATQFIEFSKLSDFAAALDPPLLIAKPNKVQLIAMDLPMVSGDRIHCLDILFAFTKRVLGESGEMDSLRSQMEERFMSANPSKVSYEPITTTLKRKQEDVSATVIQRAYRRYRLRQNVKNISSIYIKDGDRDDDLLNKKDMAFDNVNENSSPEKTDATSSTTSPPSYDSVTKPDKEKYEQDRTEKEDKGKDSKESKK
row,SMILES,IC50 [nM]
1,"CCc1ccc(-c2ncccc2Oc2ccc(S(=O)(=O)Nc3ncns3)cc2C#N)cc1 [Example 7, 3-cyano-4-{[2-(4-ethylphenyl)pyridin-3-yl]oxy}-N-1,2,4-thiadiazol-5-ylbenzenesulfonamide]",35900
2,"Cc1cn(Cc2ccccc2)nc1Oc1ccc(S(=O)(=O)Nc2ncc(Cl)s2)cc1C#N [Example 139, 4-[(1-benzyl-4-methyl-1H-pyrazol-3-yl)oxy]-N-(5-chloro-1,3-thiazol-2-yl)-3-cyanobenzenesulfonamide]",5000
3,"N#Cc1cc(S(=O)(=O)Nc2ncc[nH]2)ccc1Oc1ccccc1-c1ccccc1 [Example 117, 4-(biphenyl-2-yloxy)-3-cyano-N-1H-imidazol-2-ylbenzenesulfonamide]",19200
4,"Cc1ccc(Oc2ccc(C#N)cc2)c(Oc2ccc(S(=O)(=O)Nc3ncns3)cc2C#N)c1 [Example 78, 3-cyano-4-[2-(4-cyanophenoxy)-5-methylphenoxy]-N-1,2,4-thiadiazol-5-ylbenzenesulfonamide]",600
5,"N#Cc1cc(S(=O)(=O)Nc2nccs2)ccc1Oc1cc(-c2ccccc2)nn1CC(F)(F)F [Example 190, 3-cyano-4-[5-phenyl-2-(2,2,2-trifluoro-ethyl)-2H-pyrazol-3-yloxy]-N-thiazol-2-yl-benzenesulfonamide]",7710
6,"N#Cc1cc(S(=O)(=O)Nc2ncco2)ccc1Oc1ccccc1-c1ccccc1 [Example 95, 4-(biphenyl-2-yloxy)-3-cyano-N-1,3-oxazol-2-ylbenzenesulfonamide]",>10000
7,"O=S(=O)(Nc1nccs1)c1ccc(Oc2nc(Cc3ccc(Cl)cc3)cs2)cc1F [Example 214, 4-[4-(4-chloro-benzyl)-thiazol-2-yloxy]-2-fluoro-N-thiazol-2-yl-benzenesulfonamide]",2410

# Same assay, conditions: estimated IC50; hSCN9A HEK cells, PatchXpress platform; Examples 283-814
row,SMILES,IC50 [nM]
1,"Cn1nccc1-c1cc(Cl)ccc1Oc1ccc(S(=O)(=O)Nc2ccc(F)cn2)cc1Cl [Example 745, 3-chloro-4-[4-chloro-2-(1-methyl-1H-pyrazol-5-yl)phenoxy]-N-(5-fluoropyridin-2-yl)benzenesulfonamide]",120
2,"N#Cc1cc(S(=O)(=O)Nc2cscn2)ccc1Oc1ccc(Cl)cc1-c1ccnc(N)c1 [Example 392, 4-[2-(2-aminopyridin-4-yl)-4-chlorophenoxy]-3-cyano-N-1,3-thiazol-4-ylbenzenesulfonamide]",140
3,"CC(C)c1ccc(Oc2ccc(S(=O)(=O)Nc3nccs3)cc2C#N)c(-c2ccnn2C)c1 [Example 351, 3-cyano-4-[4-isopropyl-2-(1-methyl-1H-pyrazol-5-yl)phenoxy]-N-1,3-thiazol-2-ylbenzenesulfonamide]",18
4,"O=S(=O)(Nc1nccs1)c1ccc(Oc2cc(Cl)ccc2-c2ccn[nH]2)c(F)c1 [Example 722, 4-[5-Chloro-2-(1H-pyrazol-5-yl)phenoxy]-3-fluoro-N-1,3-thiazol-2-ylbenzenesulfonamide]",140
5,"Cn1nccc1-c1cc(C(F)(F)F)ccc1Oc1ccc(S(=O)(=O)Nc2nccs2)cc1C#N [Example 440, 3-cyano-4-[2-(1-methyl-1H-pyrazol-5-yl)-4-(trifluoromethyl)phenoxy]-N-1,3-thiazol-2-ylbenzenesulfonamide]",17
6,"COCCn1nccc1-c1cc(Cl)ccc1Oc1cc(F)c(S(=O)(=O)Nc2nncs2)cc1Cl [Example 563, 5-chloro-4-{4-chloro-2-[1-(2-methoxyethyl)-1H-pyrazol-5-yl]phenoxy}-2-fluoro-N-1,3,4-thiadiazol-2-ylbenzenesulfonamide]",130
7,"COCc1cnn(-c2ccc(Oc3ccc(S(=O)(=O)Nc4nccs4)cc3C#N)cc2)c1 [Example 376, 3-cyano-4-{4-[4-(methoxymethyl)-1H-pyrazol-1-yl]phenoxy}-N-1,3-thiazol-2-ylbenzenesulfonamide]",>1000
8,"Cn1nccc1-c1cc(C(F)(F)F)ccc1Oc1ccc(S(=O)(=O)Nc2ncns2)cc1C#N [Example 437, 3-cyano-4-[2-(1-methyl-1H-pyrazol-5-yl)-4-(trifluoromethyl)phenoxy]-N-1,2,4-thiadiazol-5-ylbenzenesulfonamide]",56
9,"N#Cc1cc(S(=O)(=O)Nc2nccs2)ccc1Oc1ccc(Br)cc1-c1cn[nH]c1 [Example 697, 4-[4-Bromo-2-(1H-pyrazol-4-yl)phenoxy]-3-cyano-N-1,3-thiazol-2-ylbenzenesulfonamide]",1.4
10,"CN1CC(n2nccc2-c2cc(F)ccc2Oc2cc(F)c(S(=O)(=O)Nc3cscn3)cc2Cl)C1 [Example 807, 5-Chloro-2-fluoro-4-{4-fluoro-2-[1-(1-methylazetidin-3-yl)-1H-pyrazol-5-yl]phenoxy}-N-1,3-thiazol-4-ylbenzenesulfonamide]",15
11,"N#Cc1cc(S(=O)(=O)Nc2ncns2)ccc1Oc1ccc(-n2cc(CO)cn2)cc1 [Example 288, 3-cyano-4-{4-[4-(hydroxymethyl)-1H-pyrazol-1-yl]phenoxy}-N-1,2,4-thiadiazol-5-ylbenzenesulfonamide]",>1000
12,"Cn1nc(C(F)(F)F)cc1-c1ccc(F)c(Oc2ccc(S(=O)(=O)Nc3nccs3)cc2C#N)c1 [Example 779, 3-cyano-4-{2-fluoro-5-[1-methyl-3-(trifluoromethyl)-1H-pyrazol-5-yl]phenoxy}-N-1,3-thiazol-2-ylbenzenesulfonamide]",210
13,"Cn1nccc1-c1cc(Cl)ccc1Oc1ncc(S(=O)(=O)Nc2nccs2)cc1C#N [Example 739, 6-[4-chloro-2-(1-methyl-1H-pyrazol-5-yl)phenoxy]-5-cyano-N-1,3-azol-2-ylpyridine-3-sulfonamide]",150
14,"Cn1nccc1-c1cc(Cl)ccc1Oc1ncc(S(=O)(=O)Nc2cscn2)cc1Cl [Example 631, 5-chloro-6-(4-chloro-2-(1-methyl-1H-pyrazol-5-yl)phenoxy)-N-(thiazol-4-yl)pyridine-3-sulfonamide]",3300
15,"O=S(=O)(Nc1ccc(F)cn1)c1cc(Cl)c(Oc2ccc(Cl)cc2C2CCNCC2)cc1F [Example 623, 5-chloro-4-(4-chloro-2-piperidin-4-ylphenoxy)-2-fluoro-N-(5-fluoropyridin-2-yl)benzenesulfonamide]",46
16,"CN1CCN(c2ccc(Oc3ccc(S(=O)(=O)Nc4nccs4)cc3C#N)cc2)C1=O [Example 487, 3-cyano-4-[4-(3-methyl-2-oxoimidazolidin-1-yl)phenoxy]-N-1,3-thiazol-2-ylbenzenesulfonamide]",>1000
17,"N#Cc1cc(S(=O)(=O)Nc2nccs2)ccc1Oc1ccc(Cl)cc1-n1nccn1 [Example 321, 4-[4-chloro-2-(2H-1,2,3-triazol-2-yl)phenoxy]-3-cyano-N-1,3-thiazol-2-ylbenzenesulfonamide]",770
18,"N#Cc1cc(S(=O)(=O)Nc2nccs2)ccc1Oc1cccc(-c2cc(C(F)(F)F)ccn2)c1 [Example 447, 3-cyano-N-1,3-thiazol-2-yl-4-{3-[4-(trifluoromethyl)pyridin-2-yl]phenoxy}benzenesulfonamide]",1800
19,"CN1CCC(c2cc(Cl)ccc2Oc2cc(F)c(S(=O)(=O)Nc3ncns3)cc2F)CC1 [Example 734, 4-[4-chloro-2-(1-methylpiperidin-4-yl)phenoxy]-2,5-difluoro-N-1,2,4-thiadiazol-5-ylbenzenesulfonamide]",53
20,"CCn1nc(C(F)(F)F)cc1-c1ccc(Oc2ccc(S(=O)(=O)Nc3nccs3)cc2F)cc1 [Example 408, 4-{4-[1-ethyl-3-(trifluoromethyl)-1H-pyrazol-5-yl]phenoxy}-3-fluoro-N-1,3-thiazol-2-ylbenzenesulfonamide]",300
21,"O=S(=O)(Nc1cscn1)c1cc(Cl)c(Oc2ccc(Cl)cc2C2CCNCC2)cc1F [Example 655, 5-chloro-4-(4-chloro-2-piperidin-4-ylphenoxy)-2-fluoro-N-1,3-thiazol-4-ylbenzenesulfonamide]",49
22,"N#Cc1cc(S(=O)(=O)Nc2nccs2)ccc1Oc1ccc(Cl)c(-c2ccn[nH]2)c1 [Example 446, 4-[4-chloro-3-(1H-pyrazol-5-yl)phenoxy]-3-cyano-N-1,3-thiazol-2-ylbenzenesulfonamide]",2300

# Same assay, conditions: estimated IC50; hSCN9A HEK cells, PatchXpress platform; Examples 815-1040
row,SMILES,IC50 [nM]
1,"O=S(=O)(Nc1cscn1)c1cc(Cl)c(Oc2ccc(Cl)cc2-c2ccnnc2)cc1F [Example 845, 5-chloro-4-(4-chloro-2-pyridazin-4-ylphenoxy)-2-fluoro-N-1,3-thiazol-4-ylbenzenesulfonamide]",41
2,"O=S(=O)(Nc1ncns1)c1ccc(Oc2ccc(OC(F)(F)F)cc2-c2ccnnc2)c(Cl)c1 [Example 900, 3-chloro-4-[2-pyridazin-4-yl-4-(trifluoromethoxy)phenoxy]-N-1,2,4-thiadiazol-5-ylbenzenesulfonamide]",2.8
3,"N#Cc1cc(S(=O)(=O)Nc2ncc(Cl)s2)ccc1Oc1ccc(Cl)cc1-c1ccon1 [Example 990, 4-(4-chloro-2-isoxazol-3-ylphenoxy)-N-(5-chloro-1,3-thiazol-2-yl)-3-cyanobenzenesulfonamide]",310
4,"CCN1CC(n2nccc2-c2cc(Cl)ccc2Oc2cc(F)c(S(=O)(=O)Nc3ncns3)cc2F)C1 [Example 975, 4-{4-chloro-2-[1-(1-ethylazetidin-3-yl)-1H-pyrazol-5-yl]phenoxy}-2,5-difluoro-N-1,2,4-thiadiazol-5-ylbenzenesulfonamide]",1.5
5,"O=S(=O)(Nc1ncns1)c1cc(F)c(Oc2ccc(C(F)(F)F)cc2-c2ccc(Cl)nn2)cc1F [Example 904, 4-[2-(6-chloropyridazin-3-yl)-4-(trifluoromethyl)phenoxy]-2,5-difluoro-N-1,2,4-thiadiazol-5-ylbenzenesulfonamide]",390
6,"Cn1nccc1-c1cc(Cl)ccc1Oc1ccc(S(=O)(=O)Nc2cncnc2)cc1C#N [Example 895, 4-[4-chloro-2-(1-methyl-1H-pyrazol-5-yl)phenoxy]-3-cyano-N-pyrimidin-5-ylbenzenesulfonamide]",>30000
7,"CSc1nnc(NS(=O)(=O)c2ccc(Oc3ccc(Cl)cc3-c3ccnn3C)c(C#N)c2)s1 [Example 891, 4-[4-chloro-2-(1-methyl-1H-pyrazol-5-yl)phenoxy]-3-cyano-N-[5-(methylthio)-1,3,4-thiadiazol-2-yl]benzenesulfonamide]",780
